Assay results as given in patent publication US20050197350A1, “Novel quinoline, tetrahydroquinazoline, and pyrimidine derivatives and methods of treatment related to the use thereof” (TAISHO PHARMACEUTICAL CO., LTD., priority 2003, published 2005).

Test system: MCH receptors
Experiment: MCH receptor activity class (method not given)
[1] = class by percent of control at 10^-7 M or IC50
[2] = class 1-3 by percent of control at 10^-7 M or IC50
[3] = MCH receptor activity class 1-3 (percent of control at 10^-7 M or IC50)
[4] = class by percent of control at 10^−7 M or IC50

CN(C)c1nc(N[C@H]2CC[C@@H](NC(=O)NCc3ccc(F)cc3)CC2)nc2c1CCCC2 [compound 1725]
class [1]: 2 (Class 2: The value of percent of control at 10^−7 M was from 40% to 60% or the value of IC′50 was from 50 nM to 200 nM.)

CN(C)c1nc(N[C@H]2CC[C@@H](NC(=O)c3cccc([N+](=O)[O-])c3)CC2)nc2c1CCCC2 [compound 480]
class [2]: 1 (Class 1: The value of percent of control at 10^−7 M was less than 40% or the value of IC50 was less than 50 nM.)

CN(C)c1ccnc(N[C@H]2CC[C@@H](CNC(=O)Nc3ccc(F)cc3)CC2)n1 [compound 2410, N-[(cis-4-{[4-(dimethylamino)pyrimidin-2-yl]amino}cyclohexyl)methyl]-N′-(4-fluorophenyl)urea]
class [3]: 2 (Class 2: The value of percent of control at 10^−7 M was from 40% to 60% or the value of IC′50 was from 50 nM to 200 nM.)

CSc1ccc(Cl)c(C(=O)N[C@H]2CC[C@@H](Nc3nc4c(c(N(C)C)n3)CCCC4)CC2)c1 [compound 1056]
class (activity class per percent of control at 10^-7 M or IC50): 3 (Class 3 The value of percent of control at 10^−7 M was more than 60% or the value of IC50 was more than 200 nM.)

Cc1ccc(S(=O)(=O)N[C@H](CN[C@H]2CC[C@@H](Nc3nc4c(c(N(C)C)n3)CCCC4)CC2)Cc2ccccc2)cc1 [compound 1491]
class [1]: 1 (Class 1: The value of percent of control at 10^−7 M was less than 40% or the value of IC50 was less than 50 nM.)

COc1ccc(NC(=O)N[C@H]2CC[C@@H](Nc3nccc(N(C)C)n3)CC2)c(C)c1 [compound 2246]
class [1]: 3 (Class 3 The value of percent of control at 10^−7 M was more than 60% or the value of IC50 was more than 200 nM.)

CN(C)c1nc(N[C@H]2CC[C@@H](CNC(=O)c3ccc(Br)cc3)CC2)nc2c1CCCC2 [compound 584]
class [2]: 3 (Class 3 The value of percent of control at 10^−7 M was more than 60% or the value of IC50 was more than 200 nM.)

CN(C)c1nc(N[C@H]2CC[C@@H](NC(=O)c3ccc(Br)o3)CC2)nc2c1CCCC2 [compound 970, 5-bromo-N-(cis-4-{[4-(dimethylamino)-5,6,7,8-tetrahydroquinazolin-2-yl]amino}cyclohexyl)-2-furamide]
class [1]: 1 (Class 1: The value of percent of control at 10^−7 M was less than 40% or the value of IC50 was less than 50 nM.)

CN(C)c1nc(N[C@H]2CC[C@@H](CNC(=O)NCc3ccccc3Cl)CC2)nc2c1CCCC2 [compound 2467]
class [3]: 3 (Class 3 The value of percent of control at 10^−7 M was more than 60% or the value of IC50 was more than 200 nM.)

CCOc1ccc(C(=O)N[C@H]2CC[C@@H](Nc3nc(C)c(C)c(N(C)C)n3)CC2)cc1 [compound 2851]
class [4]: 3 (Class 3 The value of percent of control at 10^−7 M was more than 60% or the value of IC50 was more than 200 nM.)

COc1ccccc1NC(=S)N[C@H]1CC[C@@H](Nc2nccc(N(C)C)n2)CC1 [compound 2263]
class [1]: 3 (Class 3 The value of percent of control at 10^−7 M was more than 60% or the value of IC50 was more than 200 nM.)

CN(C)c1cc(N[C@H]2CC[C@@H](CNC(=O)c3ccc(Cl)c(Cl)c3)CC2)nc2ccccc12 [compound 158]
class (MCH receptor, class by percent of control at 10^-7 M or IC50): 3 (Class 3 The value of percent of control at 10^−7 M was more than 60% or the value of IC50 was more than 200 nM.)

CN(C)c1nc(N[C@H]2CC[C@@H](NC(=O)c3ccc([N+](=O)[O-])cc3Cl)CC2)nc2c1CCCC2 [compound 538]
class [2]: 3 (Class 3 The value of percent of control at 10^−7 M was more than 60% or the value of IC50 was more than 200 nM.)

CN(C)c1ccnc(N[C@H]2CC[C@@H](NC(=O)c3cn(S(=O)(=O)c4ccccc4)c4ccccc34)CC2)n1 [compound 908]
class [1]: 3 (Class 3 The value of percent of control at 10^−7 M was more than 60% or the value of IC50 was more than 200 nM.)

N-(3,4-dimethoxyphenyl)-N′-(cis-4-{[4-(dimethylamino)-5,6-dimethylpyrimidin-2-yl]amino}cyclohexyl)urea [compound 2867]
class [4]: 1 (Class 1: The value of percent of control at 10^−7 M was less than 40% or the value of IC50 was less than 50 nM.)
